Measured values: PubChem BioAssay (NCI)
Values joined by “and” are separate entries in the source; they are usually repeats but may differ in a detail not shown here. Equal values may be shown once.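 Briefly, cells in 96-well plates were exposed to five compound concentrations for 48 h, and endpoints were estimated by linear interpolation. At the GI50, growth is halved. The concentration for full growth arrest is given as TGI.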

What was measured:
Assay in all cases: NCI tumour cell line growth inhibition, 48 h
786-0 renal = tested on: 786-0 renal
A549 NSCLC = tested on: A549 NSCLC
ACHN renal = tested on: ACHN renal
HCT-116 colon = tested on: HCT-116 colon
HOP-92 NSCLC = tested on: HOP-92 NSCLC
NCI-H23 lung = tested on: NCI-H23 lung
PC-3 prostate = tested on: PC-3 prostate
SN12C renal = tested on: SN12C renal
SNB-75 CNS = tested on: SNB-75 CNS
TK-10 renal = tested on: TK-10 renal

| SMILES | GI50 (786-0 renal) | TGI (786-0 renal) | GI50 (A549 NSCLC) | TGI (A549 NSCLC) | GI50 (ACHN renal) | TGI (ACHN renal) | GI50 (HCT-116 colon) | TGI (HCT-116 colon) | GI50 (HOP-92 NSCLC) | TGI (HOP-92 NSCLC) | GI50 (NCI-H23 lung) | TGI (NCI-H23 lung) | GI50 (PC-3 prostate) | TGI (PC-3 prostate) | GI50 (SN12C renal) | TGI (SN12C renal) | GI50 (SNB-75 CNS) | TGI (SNB-75 CNS) | GI50 (TK-10 renal) | TGI (TK-10 renal) |
| --- | --- | --- | --- | --- | --- | --- | --- | --- | --- | --- | --- | --- | --- | --- | --- | --- | --- | --- | --- | --- |
| O=C(O)C(=O)CBr | 16.9 µM and 21.7 µM | 31.3 µM and 36.5 µM | > 100 µM and 25 µM | > 100 µM and 52.2 µM | > 35.8 µM and 16.3 µM | > 53.9 µM and 31.6 µM | > 38.9 µM and 18.5 µM | > 54.2 µM and 33.3 µM | > 33.2 µM and 19.1 µM | > 49.9 µM and 34 µM | > 48.4 µM and 19.9 µM | > 74 µM and 39.5 µM | > 51.6 µM and 19.5 µM | > 81.7 µM and 37.1 µM | > 46.2 µM and 19.1 µM | > 64 µM and 34.5 µM | > 100 µM and 25.2 µM | > 100 µM and 60.3 µM | > 39.7 µM and 11.4 µM | > 55.3 µM and 24.6 µM |
| Cc1cc(O)cc2c1c(=O)c1ccccc1n2C | – | > 100 µM | – | > 100 µM | – | > 100 µM | – | > 100 µM | – | 93.6 µM | – | > 100 µM | – | > 100 µM | – | > 100 µM | – | > 100 µM | – | > 100 µM |
| COc1ccc(NC(=O)/C=C(C)/C=C/C=C(C)\C=C\C2=C(C)CCCC2(C)C)cc1 | 90.3 µM | > 100 µM | 87.9 µM | > 100 µM | > 100 µM | > 100 µM | 28.6 µM | > 100 µM | – | 30.4 µM | 30.1 µM | > 100 µM | 72.6 µM | > 100 µM | 97.3 µM | > 100 µM | 2.15 µM | > 100 µM | > 100 µM | > 100 µM |
| CCc1nc(-n2c(-c3ccccc3)nc3ccccc3c2=O)nc(N)c1-c1ccc(Cl)cc1 | 5.64 µM | > 100 µM | 4.98 µM | > 100 µM | 5.53 µM | > 100 µM | 3.28 µM | > 100 µM | 13.4 µM | > 100 µM | 2.9 µM | 39.7 µM | 5.64 µM | 90.6 µM | 15.6 µM | > 100 µM | 48.2 µM | > 100 µM | 23.1 µM | > 100 µM |
| O=C(NCCCCOCC#Cc1ccccc1C#CCS(=O)(=O)c1ccccc1)c1cc2ccccc2[nH]1 | 12.8 µM | 34.8 µM | 16.8 µM | > 50 µM | 9.64 µM | 22.9 µM | 9.63 µM | 26.6 µM | 1.39 µM | 15.7 µM | 7.25 µM | 16 µM | 7.1 µM | 36.5 µM | 10 µM | 24.9 µM | 12.5 µM | 27.3 µM | 23.5 µM | > 50 µM |
| CC(C)(C)C(=O)OCc1nc2cc3c(cc2c(=O)[nH]1)CCC3=O | > 100 µM | > 100 µM | > 100 µM | > 100 µM | > 100 µM | > 100 µM | > 100 µM | > 100 µM | > 100 µM | > 100 µM | > 100 µM | > 100 µM | > 100 µM | > 100 µM | > 100 µM | > 100 µM | > 100 µM | > 100 µM | > 100 µM | > 100 µM |
| CC[C@H](NC(=O)[C@H](CS(=O)(=O)CC1CC1)N[C@@H](c1ccc(F)cc1)C(F)(F)F)C(=O)C(=O)NC1CC1 | > 100 µM | > 100 µM | > 100 µM | > 100 µM | > 100 µM | > 100 µM | > 100 µM | > 100 µM | 98.7 µM | > 100 µM | > 100 µM | > 100 µM | > 100 µM | > 100 µM | > 100 µM | > 100 µM | > 100 µM | > 100 µM | > 100 µM | > 100 µM |
| CCCCCCNC(=O)Oc1ccc(/C(=C(\C)c2ccccc2)c2ccc(OCCN(CC)CC)cc2)cc1 | 1.5 µM | 5.33 µM | 5.11 µM | 11.4 µM | 5.99 µM | 12.2 µM | 2.08 µM | 7.39 µM | 2.59 µM | 9.16 µM | 5.17 µM | 11.6 µM | 2.81 µM | 9.21 µM | 4.93 µM | 10.9 µM | 3.54 µM | 10.5 µM | 6.74 µM | 13.5 µM |
| NS(=O)(=O)c1ccc(NC(=O)Nc2ccccc2F)cc1 | – | > 100 µM | – | > 100 µM | – | > 100 µM | – | > 100 µM | – | > 100 µM | – | > 100 µM | – | > 100 µM | – | > 100 µM | – | > 100 µM | – | > 100 µM |
| CCOC(=O)c1ccccc1-c1c2ccc(=[N+](C)C)cc-2oc2cc(N(C)C)ccc12 | 0.94 µM | > 36.5 µM | 0.256 µM | > 38.7 µM | 1.28 µM | 8.1 µM | 0.257 µM | 13.1 µM | 0.619 µM | 3.96 µM | 0.231 µM | 11.9 µM | 0.0778 µM | 12.8 µM | 0.171 µM | 4.31 µM | 0.196 µM | 11 µM | 1.06 µM | 25.2 µM |
| COc1cc2c(cc1OC)-c1ncc3cc4c(cc3c1C2)OCO4 | 18.3 µM | 45.5 µM | 34.2 µM | > 100 µM | > 100 µM | > 100 µM | 11.1 µM | 23 µM | > 100 µM | > 100 µM | 20.3 µM | 41.7 µM | > 100 µM | > 100 µM | > 100 µM | > 100 µM | 64.1 µM | > 100 µM | 43.2 µM | > 100 µM |
| O=[As]c1ccc(C(=O)c2ccc(Oc3ccccc3)cc2)cc1 (centres undefined) | 0.0576 µM | 0.166 µM | 0.0465 µM | 0.172 µM | 0.0358 µM | 0.114 µM | 0.0415 µM | 0.152 µM | 0.159 µM | 0.361 µM | 0.0751 µM | 0.242 µM | 0.0349 µM | 0.142 µM | 0.0407 µM | 0.148 µM | 0.0366 µM | 0.15 µM | 0.063 µM | 0.19 µM |
| O=C(Nc1cccc(C(F)(F)F)c1)c1cc(Br)cc(Br)c1O | – | > 10 µM | – | 9.56 µM | – | 9.29 µM | – | 5.44 µM | – | 5.82 µM | – | 5.27 µM | – | 7.28 µM | – | > 10 µM | – | > 10 µM | – | 7.38 µM |
